System: P-glycoprotein (Pgp, MDR1)
Assay: MDCKII-MDR1 permeability and Pgp efflux
Format: in vitro ADME
Settings: dog

COCCc1ccc(OCC(O)CNC(C)C)cc1 (centres unmarked) [metoprolol]
Papp A→B (MDCK-MDR1): 28.6 ×10⁻⁶ cm/s | Papp B→A (MDCK-MDR1): 28 ×10⁻⁶ cm/s | efflux ratio (MDCK-MDR1): 0.98 | recovery (MDCK-MDR1, recovery (%) A-B, MDCKII-MDR1, A-B): 109% | recovery (MDCK-MDR1, recovery (%) B-A, MDCKII-MDR1, B-A): 97.4%

From publication PMC13349481 (ACS chemical biology, 2025)
